# Data taken from patent EP1932831A1, “1,2-Diarylacetylene Derivatives of Acyltryptophanols” (Bayer Schering Pharma Aktiengesellschaft, priority 2006, dated 2008).
# Target: T1, human FSH receptor (Homo sapiens, UniProt P23945)
# T1 construct: expressed in transfected cells; host or cells: CHO cells (hFSHR clone 16)
# T1 sequence (P23945 18-695): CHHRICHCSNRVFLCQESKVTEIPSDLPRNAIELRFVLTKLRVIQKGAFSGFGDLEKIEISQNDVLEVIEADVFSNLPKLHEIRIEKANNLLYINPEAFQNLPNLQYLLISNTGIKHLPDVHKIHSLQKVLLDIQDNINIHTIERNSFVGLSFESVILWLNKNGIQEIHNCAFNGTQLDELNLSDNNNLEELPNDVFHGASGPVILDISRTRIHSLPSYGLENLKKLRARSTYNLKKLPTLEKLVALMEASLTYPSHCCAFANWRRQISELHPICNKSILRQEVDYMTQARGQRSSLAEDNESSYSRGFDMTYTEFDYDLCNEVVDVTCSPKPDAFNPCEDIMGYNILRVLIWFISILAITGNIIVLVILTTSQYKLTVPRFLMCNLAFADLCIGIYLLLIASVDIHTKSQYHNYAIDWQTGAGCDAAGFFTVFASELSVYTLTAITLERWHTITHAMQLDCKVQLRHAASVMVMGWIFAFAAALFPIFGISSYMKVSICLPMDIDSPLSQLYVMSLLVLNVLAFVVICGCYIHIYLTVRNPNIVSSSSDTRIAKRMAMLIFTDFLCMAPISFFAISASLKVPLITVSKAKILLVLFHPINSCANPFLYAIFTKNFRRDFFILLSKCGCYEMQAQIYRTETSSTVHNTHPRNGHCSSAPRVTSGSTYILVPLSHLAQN
# Test: HTRF assay for measuring cAMP in cells (FSH antagonism)
# Format: cell-based
# Settings: FSH-antagonistic effect; hFSHR clone 16 cells (CHO cells stably transfected with the human FSH receptor); in the presence of 1e-9 mol/l hFSH; 37°C for 2h
# Description: The method is based on a competitive immunoassay between native cAMP, which has been produced by the cells, and cAMP which is labelled with cAMPD2 conjugate. The tracer binding was visualized by a monoclonal antibody, anti-cAMP labelled with cryptate [HTRF = homogeneous time-resolved fluorescence]. The specific signal is inversely proportional to the cAMP concentration of the samples employed. The 665nm/ 620nm fluorescence ratio was evaluated.
# Materials used: 96-well plates for the tissue culture, 96-well plates with black edge and black base (e.g. Fluotrac 600 from Greiner), 96-well plates for the substance dilutions of polypropylene and cAMP Femtomolar (4000wells Kit, CIS Bio International # 62AM5PEJ). Reagent used: BSA (bovine serum albumin) Fraction V protease-free, IBMX (3-isobutyl-1-methylxanthine), hFSH (human follicle stimulating hormone), Triton X-100 analytical grade, potassium fluoride analytical grade, G 418 (Geneticin) and Accutase.
# Buffer 1 (washing and testing buffer) contained PBS, 1 mM CaCl2, 1 mM MgCl2, 0.2% glucose; 0.1% BSA, 1 mM IBMX.
# Buffer 2 (2x lysis buffer) contained 1% Triton X-100 in PBS (without CaCl2 and MgCl2).
# Buffer 3 (assay buffer) contained 50 mM potassium phosphate buffer (pH 7.0); 800 mM potassium fluoride; 0.2% BSA (always added fresh).
# On day 1, the cells were seeded in 96-well plates (3x10^4 cells per well hFSHR clone 16 cells (CHO cells stably transfected with the human FSH receptor in 150 µl of medium). The next day, test substance dilutions were made up. For this purpose, all the substances were diluted in ice-cold buffer 1 (with or without hFSH), and the substance dilutions were placed on ice until applied to the cells. The cell supernatant was then aspirated off, and the cells were washed 2x with 200 µl of buffer 1. The cells were treated with 60 µl of the appropriate substance concentrations at 37°C for 2h. The cells were then lysed with 60 µl of buffer 2 (put onto the supernatant) (on a plate shaker at RT for 30 min). The test conjugates (cAMP-D2 and anti-cAMP cryptate, CIS Bio) were diluted in buffer 3 in accordance with the manufacturers' information. The actual mixture for measurement was pipetted into a black 96-well plate (in each case 15 µl of the cell lysate diluted with 35 µl of buffer 1; firstly 25 µl of cAMP-D2 conjugate were pipetted and, after 10 min, 25 µl of the anti-cAMP cryptate were added). This is followed by incubation at RT for 90 minutes. The measurement was carried out in a PheraStar (BMG).
# Dose-effect curve (hFSH) for the human receptor: 1 e-8, 3e-9, 1 e-9, 3e-10, 1e-10, 3e-11, 1 e-11, 3e-12 mol/I. The test substances were employed in suitable dilutions in the absence (test for agonism) and in the presence of 1e-9 mol/l hFSH.
# The values of the well ratio were averaged and then entered directly in SigmaPlot versus the concentrations. The maximum and minimum values were determined for each plate, and half the difference is to be regarded as IC50. […] Table 1. FSH-antagonistic effect of selected compounds in the HTRF assay
row,SMILES,IC50 [nM]
1,"COc1ccccc1C#Cc1ccc(OC(C)C)c(C(=O)NC(CO)Cc2c[nH]c3cc(F)c(F)cc23)c1 (racemic) [Example 23, N-[(RS)-2-(5,6-Difluoro-1H-indol-3-yl)-1-hydroxymethyl-ethyl]-2-isopropoxy-5-(2-methoxy-phenylethynyl)-benzamide]",30
2,"COc1ccccc1C#Cc1ccc(OC(C)C)c(C(=O)NC(CO)Cc2c[nH]c3ccc(F)cc23)c1 (stereo not shown) [Example 22, N-[2-(5-Fluoro-1H-indol-3-yl)-1-hydroxymethyl-ethyl]-2-isopropoxy-5-(2-methoxy-phenylethynyl)-benzamide]",150
3,"COc1ccccc1C#Cc1ccc(OC(C)C)c(C(=O)N[C@H](CO)Cc2c[nH]c3ccccc23)c1 [Example 4, N-[(S)-1-Hydroxymethyl-2-(1H-indol-3-yl)-ethyl]-2-isopropoxy-5-(2-methoxy-phenylethynyl)-benzamide]",7500
4,"CCn1cc(C[C@H](CO)NC(=O)c2cc(C#Cc3ccccc3OC)ccc2OC(C)C)c2ccccc21 [Example 24, N-[(R)-2-(1-Ethyl-1H-indol-3-yl)-1-hydroxymethyl-ethyl]-2-isopropoxy-5-(2-methoxy-phenylethynyl)-benzamide]",20
5,"CCCOc1ccc(C#Cc2ccccc2)cc1C(=O)N[C@@H](CO)Cc1c[nH]c2ccccc12 [Example 1, N-[(R)-1-Hydroxymethyl-2-(1H-indol-3-yl)-ethyl]-5-phenylethynyl-2-propoxybenzamide]",250
6,"COc1ccccc1C#Cc1ccc(OC(C)C)c(C(=O)N[C@H](Cc2c[nH]c3ccccc23)C(C)(C)O)c1 [Example 20, N-[(R)-2-Hydroxy-1-(1H-indol-3-ylmethyl)-2-methyl-propyl]-2-isopropoxy-5-(2-methoxy-phenylethynyl)-benzamide]",700
7,"COc1ccccc1C#Cc1cc(C(=O)N[C@@H](CO)Cc2c[nH]c3ccccc23)c2ccccc2c1 [Example 6, 3-(2-Methoxy-phenylethynyl)-naphthalene-1-carboxylic acid [(R)-1-hydroxymethyl-2-(1H-indol-3-yl)-ethyl]-amide]",100
8,"CC(C)Oc1ccc(C#Cc2ccccc2)cc1C(=O)NC(CO)Cc1c[nH]c2ccc(F)cc12 (stereo not shown) [Example 21, N-[2-(5-Fluoro-1H-indol-3-yl)-1-hydroxymethyl-ethyl]-2-isopropoxy-5-phenylethynyl-benzamide]",300
9,"Cc1ccccc1C#Cc1ccc(OC(C)C)c(C(=O)N[C@@H](CO)Cc2c[nH]c3ccccc23)c1 [Example 5, N-[(R)-1-Hydroxymethyl-2-(1H-indol-3-yl)-ethyl]-2-isopropoxy-5-o-tolylethynyl-benzamide]",80
10,"CCCOc1ccc(C#Cc2ccccc2OC)cc1C(=O)N[C@@H](CO)Cc1c[nH]c2ccccc12 [Example 2, N-[(R)-1-Hydroxymethyl-2-(1H-indol-3-yl)-ethyl]-5-(2-methoxyphenylethynyl)-2-propoxy-benzamide]",70
